Literature values in US6113907A, “Pharmaceutical grade St. John's Wort” (priority 1997, dated 2000).

Settings: depressed outpatients; cited from earlier work

For `CCCC/N=C(/c1cc(Cl)ccc1O)c1ccccc1Cl` [fengabine], the antidepressant effects is listed as “antidepressant effects”.
